Results: PMC9856672, “SGC-CAMKK2-1: A Chemical Probe for CAMKK2” (Cells, 2023)

Experiments:
Format in all cases: binding
DYRK2 = target: T1, DYRK2 (Homo sapiens, UniProt Q92630); assay: KINOMEscan 1 μM, DYRK2; conditions: 1000 nM; Entrez DYRK2; read-out: Percent Control
T1 construct: purchased Eurofins DiscoverX KINOMEscan
Description: (§1) Supplement cells-12-00287-s001.zip/File S2. KinomeScan data for the CAMKK2 probe and negative control.xlsx, sheet "SGC-CAMKK2-1" | column: Percent Control

EPHA2 = target: T2, EPHA2 (Homo sapiens, UniProt P29317); assay: KINOMEscan 1 μM, EPHA2; conditions: 1000 nM; Entrez EPHA2; read-out: Percent Control
T2 construct: purchased Eurofins DiscoverX KINOMEscan
Description: as §1

VPS34 = target: T3, VPS34 (Homo sapiens, UniProt Q8NEB9); assay: KINOMEscan at 1 μM, VPS34; conditions: 1000 nM, read-out: Percent Control
T3 construct: purchased Eurofins DiscoverX KINOMEscan
Description: (§2) Supplement cells-12-00287-s001.zip/File S2. KinomeScan data for the CAMKK2 probe and negative control.xlsx, sheet "SGC-CAMKK2-1N" | column: Percent Control

MET = target: T4, MET (Homo sapiens, UniProt P08581); assay: KINOMEscan at 1 μM, MET; conditions: 1000 nM, read-out: Percent Control
T4 construct: purchased Eurofins DiscoverX KINOMEscan
Description: as §2

T2 sequence (P29317 24-976): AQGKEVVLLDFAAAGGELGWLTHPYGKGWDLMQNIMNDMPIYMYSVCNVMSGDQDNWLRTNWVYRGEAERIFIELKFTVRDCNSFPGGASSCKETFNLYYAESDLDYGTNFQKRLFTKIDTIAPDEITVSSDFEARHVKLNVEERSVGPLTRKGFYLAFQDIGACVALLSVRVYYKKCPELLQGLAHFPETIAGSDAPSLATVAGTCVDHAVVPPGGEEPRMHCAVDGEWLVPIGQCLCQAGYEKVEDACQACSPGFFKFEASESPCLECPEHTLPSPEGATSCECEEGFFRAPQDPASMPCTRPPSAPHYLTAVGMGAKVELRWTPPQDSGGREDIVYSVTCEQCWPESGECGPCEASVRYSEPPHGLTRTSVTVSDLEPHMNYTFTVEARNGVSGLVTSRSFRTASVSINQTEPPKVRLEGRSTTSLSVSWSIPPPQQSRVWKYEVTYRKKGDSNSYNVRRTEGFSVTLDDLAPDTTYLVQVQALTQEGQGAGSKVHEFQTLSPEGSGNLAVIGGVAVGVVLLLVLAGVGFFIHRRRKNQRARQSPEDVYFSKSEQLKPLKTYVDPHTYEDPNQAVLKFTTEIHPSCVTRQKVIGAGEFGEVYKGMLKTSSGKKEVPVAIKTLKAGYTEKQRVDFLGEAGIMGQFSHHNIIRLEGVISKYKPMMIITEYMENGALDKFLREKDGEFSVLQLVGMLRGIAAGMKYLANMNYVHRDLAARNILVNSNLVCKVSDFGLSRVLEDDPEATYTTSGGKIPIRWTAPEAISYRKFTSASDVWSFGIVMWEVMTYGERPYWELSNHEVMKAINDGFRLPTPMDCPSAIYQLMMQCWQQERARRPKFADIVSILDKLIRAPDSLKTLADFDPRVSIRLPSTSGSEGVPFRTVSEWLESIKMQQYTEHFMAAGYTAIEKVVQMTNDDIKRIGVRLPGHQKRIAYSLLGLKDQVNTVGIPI
T1 sequence (Q92630 whole entry): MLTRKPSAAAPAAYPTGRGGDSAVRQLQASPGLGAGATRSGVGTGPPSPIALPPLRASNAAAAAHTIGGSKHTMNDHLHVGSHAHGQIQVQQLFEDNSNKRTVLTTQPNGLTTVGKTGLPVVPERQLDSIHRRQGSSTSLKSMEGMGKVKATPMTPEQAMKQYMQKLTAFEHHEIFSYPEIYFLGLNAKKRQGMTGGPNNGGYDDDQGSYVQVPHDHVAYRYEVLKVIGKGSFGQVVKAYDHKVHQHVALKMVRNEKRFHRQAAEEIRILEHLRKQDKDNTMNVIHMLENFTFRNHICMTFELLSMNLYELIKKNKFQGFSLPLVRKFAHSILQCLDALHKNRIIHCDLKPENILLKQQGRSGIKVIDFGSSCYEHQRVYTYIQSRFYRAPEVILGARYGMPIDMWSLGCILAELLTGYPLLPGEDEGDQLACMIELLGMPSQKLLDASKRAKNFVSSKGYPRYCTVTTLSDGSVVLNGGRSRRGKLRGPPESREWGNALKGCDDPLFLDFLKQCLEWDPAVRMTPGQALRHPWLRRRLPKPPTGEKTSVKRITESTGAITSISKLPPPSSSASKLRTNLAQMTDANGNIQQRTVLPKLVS
T4 sequence (P08581 25-1390): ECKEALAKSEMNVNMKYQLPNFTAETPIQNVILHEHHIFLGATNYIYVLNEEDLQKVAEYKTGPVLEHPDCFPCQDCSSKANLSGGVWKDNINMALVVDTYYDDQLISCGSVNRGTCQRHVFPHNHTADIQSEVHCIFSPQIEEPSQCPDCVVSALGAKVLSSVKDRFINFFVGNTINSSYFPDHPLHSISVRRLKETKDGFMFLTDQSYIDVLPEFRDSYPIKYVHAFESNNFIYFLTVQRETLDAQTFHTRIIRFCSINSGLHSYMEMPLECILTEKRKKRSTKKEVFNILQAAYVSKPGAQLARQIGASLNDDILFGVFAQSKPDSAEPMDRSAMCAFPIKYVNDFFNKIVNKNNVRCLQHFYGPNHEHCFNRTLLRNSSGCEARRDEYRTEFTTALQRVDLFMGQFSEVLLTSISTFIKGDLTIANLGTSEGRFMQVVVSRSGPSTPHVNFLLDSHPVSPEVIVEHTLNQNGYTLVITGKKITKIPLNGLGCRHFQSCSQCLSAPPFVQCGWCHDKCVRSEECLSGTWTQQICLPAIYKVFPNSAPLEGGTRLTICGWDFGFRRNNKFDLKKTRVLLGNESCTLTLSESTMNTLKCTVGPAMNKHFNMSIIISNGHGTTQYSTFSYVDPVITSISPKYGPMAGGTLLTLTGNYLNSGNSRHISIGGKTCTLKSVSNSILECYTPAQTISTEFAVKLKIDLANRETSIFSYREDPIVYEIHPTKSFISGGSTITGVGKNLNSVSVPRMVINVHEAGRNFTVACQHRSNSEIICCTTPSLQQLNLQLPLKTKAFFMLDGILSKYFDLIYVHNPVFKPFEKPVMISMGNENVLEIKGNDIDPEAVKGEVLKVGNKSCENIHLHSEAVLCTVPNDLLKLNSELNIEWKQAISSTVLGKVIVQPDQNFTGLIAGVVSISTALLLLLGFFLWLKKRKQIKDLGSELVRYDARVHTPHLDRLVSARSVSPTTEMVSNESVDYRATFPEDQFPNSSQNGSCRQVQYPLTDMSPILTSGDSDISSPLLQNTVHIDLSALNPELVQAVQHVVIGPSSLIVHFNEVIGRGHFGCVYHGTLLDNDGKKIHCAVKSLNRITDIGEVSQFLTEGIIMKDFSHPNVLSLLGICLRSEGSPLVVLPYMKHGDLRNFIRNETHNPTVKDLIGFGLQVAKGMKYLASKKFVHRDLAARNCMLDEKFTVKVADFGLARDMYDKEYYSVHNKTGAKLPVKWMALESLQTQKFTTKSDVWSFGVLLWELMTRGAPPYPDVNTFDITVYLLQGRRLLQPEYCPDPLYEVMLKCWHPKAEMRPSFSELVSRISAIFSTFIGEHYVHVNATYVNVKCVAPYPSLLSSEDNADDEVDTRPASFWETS
T3 sequence (Q8NEB9 whole entry): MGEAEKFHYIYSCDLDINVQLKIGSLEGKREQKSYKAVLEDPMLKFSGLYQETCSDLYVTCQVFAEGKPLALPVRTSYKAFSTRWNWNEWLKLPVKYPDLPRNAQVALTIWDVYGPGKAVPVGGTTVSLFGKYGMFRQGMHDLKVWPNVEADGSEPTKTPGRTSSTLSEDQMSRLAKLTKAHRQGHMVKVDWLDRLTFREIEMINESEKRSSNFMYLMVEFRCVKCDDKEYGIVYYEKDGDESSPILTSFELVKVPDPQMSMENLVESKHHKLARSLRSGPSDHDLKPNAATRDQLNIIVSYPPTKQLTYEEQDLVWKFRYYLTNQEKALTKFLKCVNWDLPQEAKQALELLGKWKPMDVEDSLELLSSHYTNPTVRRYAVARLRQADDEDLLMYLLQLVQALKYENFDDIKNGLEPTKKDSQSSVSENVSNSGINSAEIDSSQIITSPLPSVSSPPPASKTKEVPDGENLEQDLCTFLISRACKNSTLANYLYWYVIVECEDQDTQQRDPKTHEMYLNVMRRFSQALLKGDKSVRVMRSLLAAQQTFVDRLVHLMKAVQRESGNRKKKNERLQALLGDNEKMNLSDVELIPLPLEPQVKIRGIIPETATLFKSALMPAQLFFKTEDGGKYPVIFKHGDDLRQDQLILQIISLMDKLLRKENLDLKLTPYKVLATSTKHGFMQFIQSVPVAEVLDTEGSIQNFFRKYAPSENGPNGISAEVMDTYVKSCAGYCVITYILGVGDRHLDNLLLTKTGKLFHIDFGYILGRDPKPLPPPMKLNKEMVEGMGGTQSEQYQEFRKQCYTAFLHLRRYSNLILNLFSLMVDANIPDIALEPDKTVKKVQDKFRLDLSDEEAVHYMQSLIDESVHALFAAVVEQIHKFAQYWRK

SMILES	remaining binding at 1 µM (DYRK2) [%]	remaining binding at 1 µM (EPHA2) [%]	remaining binding at 1 µM (VPS34) [%]	remaining binding at 1 µM (MET) [%]
Cc1cccc(-c2cnc3occ(-c4ccc(C(=O)O)c(C5CCCC5)c4)c3c2)c1 [SGC-CAMKK2-1 (YL-36)]	69	100		
O=C(O)c1ccc(-c2coc3ncc(-c4ccccc4)cc23)cc1Cl [SGC-CAMKK2-1N (UNC-YL-83)]			44	91
